# In PMC8222254, “Self-assembly of an anion receptor with metal-dependent kinase inhibition and potent in vitro anti-cancer properties” (Nature Communications, 2021):
# Values joined by “and” are separate entries in the source; they are usually repeats but may differ in a detail not shown here. Identical values can stand only once.
# Key:
# Experiment in all cases: Kinase inhibition screen, cell-free 33P ATP assay at 10 μM
# Assay type in all cases: biochemical
# [1] = target: T1, 140 purified human kinases (Homo sapiens, UniProt Q8TDC3)
# T1 sequence (Q8TDC3 1-778): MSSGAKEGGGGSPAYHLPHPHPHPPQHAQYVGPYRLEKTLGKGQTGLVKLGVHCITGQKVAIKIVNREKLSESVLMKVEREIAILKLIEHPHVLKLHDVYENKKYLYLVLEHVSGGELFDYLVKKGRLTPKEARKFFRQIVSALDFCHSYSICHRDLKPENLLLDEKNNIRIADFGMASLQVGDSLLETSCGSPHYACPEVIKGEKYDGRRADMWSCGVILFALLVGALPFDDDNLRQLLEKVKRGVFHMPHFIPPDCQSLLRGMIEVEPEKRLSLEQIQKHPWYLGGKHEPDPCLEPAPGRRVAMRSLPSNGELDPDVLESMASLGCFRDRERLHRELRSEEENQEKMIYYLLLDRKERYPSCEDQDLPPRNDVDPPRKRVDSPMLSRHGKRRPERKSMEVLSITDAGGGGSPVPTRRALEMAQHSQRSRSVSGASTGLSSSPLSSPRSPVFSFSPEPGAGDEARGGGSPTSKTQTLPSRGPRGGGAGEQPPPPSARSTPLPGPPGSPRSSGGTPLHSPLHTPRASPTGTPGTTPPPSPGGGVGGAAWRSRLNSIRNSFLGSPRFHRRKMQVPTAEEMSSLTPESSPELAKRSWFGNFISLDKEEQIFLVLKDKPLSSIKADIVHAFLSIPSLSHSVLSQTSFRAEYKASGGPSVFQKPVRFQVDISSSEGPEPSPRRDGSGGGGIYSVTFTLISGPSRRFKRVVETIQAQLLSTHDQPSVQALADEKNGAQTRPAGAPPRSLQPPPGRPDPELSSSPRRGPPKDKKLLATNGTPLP
# How it was run: (§1)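 Each complex tested in duplicate at 10 μM; cell-free radiometric assay using ^33P ATP on purified enzymes. Hits mapped by HGNC symbol onto the kinome tree.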
# [2] = target: T2, 140 purified human kinases (Homo sapiens, UniProt O43781)
# T2 sequence (O43781 1-588): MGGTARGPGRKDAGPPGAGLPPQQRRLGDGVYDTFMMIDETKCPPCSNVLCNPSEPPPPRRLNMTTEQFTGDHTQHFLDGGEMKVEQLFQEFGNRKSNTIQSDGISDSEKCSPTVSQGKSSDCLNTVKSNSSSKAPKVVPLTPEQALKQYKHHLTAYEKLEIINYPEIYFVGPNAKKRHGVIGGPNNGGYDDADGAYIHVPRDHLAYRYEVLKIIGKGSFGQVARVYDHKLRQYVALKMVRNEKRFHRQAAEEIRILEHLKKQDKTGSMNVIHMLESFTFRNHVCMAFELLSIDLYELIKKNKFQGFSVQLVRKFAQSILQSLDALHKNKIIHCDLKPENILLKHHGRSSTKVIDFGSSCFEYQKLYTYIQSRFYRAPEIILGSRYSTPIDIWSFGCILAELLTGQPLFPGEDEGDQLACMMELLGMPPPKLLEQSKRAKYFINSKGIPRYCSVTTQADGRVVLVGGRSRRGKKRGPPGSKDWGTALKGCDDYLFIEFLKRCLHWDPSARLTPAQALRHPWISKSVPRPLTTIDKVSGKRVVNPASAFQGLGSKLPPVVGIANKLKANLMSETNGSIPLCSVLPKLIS
# How it was run: as §1
# [3] = target: 140 purified human kinases (Homo sapiens, UniProt O96013)
# How it was run: as §1
# [4] = target: 140 purified human kinases (Homo sapiens, UniProt P49760)
# How it was run: as §1
# [5] = target: T3, 140 purified human kinases (Homo sapiens, UniProt P36897)
# T3 sequence (P36897 34-503): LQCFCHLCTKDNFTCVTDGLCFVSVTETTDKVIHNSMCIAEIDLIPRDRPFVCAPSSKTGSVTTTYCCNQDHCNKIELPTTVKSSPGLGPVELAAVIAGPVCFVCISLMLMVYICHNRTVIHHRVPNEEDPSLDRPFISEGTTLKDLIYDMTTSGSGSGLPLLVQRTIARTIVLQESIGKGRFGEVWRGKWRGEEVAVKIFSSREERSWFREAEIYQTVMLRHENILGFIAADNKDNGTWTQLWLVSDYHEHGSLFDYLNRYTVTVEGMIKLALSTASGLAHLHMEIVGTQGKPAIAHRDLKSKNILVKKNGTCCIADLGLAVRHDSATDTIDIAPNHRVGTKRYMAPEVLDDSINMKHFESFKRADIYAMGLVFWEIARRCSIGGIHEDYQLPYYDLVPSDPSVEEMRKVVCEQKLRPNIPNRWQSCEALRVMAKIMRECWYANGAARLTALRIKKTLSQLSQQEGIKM
# How it was run: as §1
# Sequence of 140 purified human kinases (Homo sapiens, UniProt P49760) (P49760 whole entry): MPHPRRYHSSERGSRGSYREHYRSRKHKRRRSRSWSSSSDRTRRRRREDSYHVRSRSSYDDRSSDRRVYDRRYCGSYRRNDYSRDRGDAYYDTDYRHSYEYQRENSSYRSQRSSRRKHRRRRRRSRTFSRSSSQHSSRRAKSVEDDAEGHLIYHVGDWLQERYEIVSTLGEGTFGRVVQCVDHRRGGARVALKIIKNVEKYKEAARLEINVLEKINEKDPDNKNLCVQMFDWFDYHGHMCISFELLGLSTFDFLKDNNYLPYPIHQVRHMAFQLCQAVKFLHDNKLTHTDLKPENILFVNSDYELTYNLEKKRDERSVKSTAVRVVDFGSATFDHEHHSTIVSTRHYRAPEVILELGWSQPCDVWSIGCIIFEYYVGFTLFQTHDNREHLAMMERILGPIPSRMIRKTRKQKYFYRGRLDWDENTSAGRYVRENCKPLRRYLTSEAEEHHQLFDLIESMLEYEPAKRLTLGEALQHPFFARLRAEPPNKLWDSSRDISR
# Sequence of 140 purified human kinases (Homo sapiens, UniProt O96013) (O96013 whole entry): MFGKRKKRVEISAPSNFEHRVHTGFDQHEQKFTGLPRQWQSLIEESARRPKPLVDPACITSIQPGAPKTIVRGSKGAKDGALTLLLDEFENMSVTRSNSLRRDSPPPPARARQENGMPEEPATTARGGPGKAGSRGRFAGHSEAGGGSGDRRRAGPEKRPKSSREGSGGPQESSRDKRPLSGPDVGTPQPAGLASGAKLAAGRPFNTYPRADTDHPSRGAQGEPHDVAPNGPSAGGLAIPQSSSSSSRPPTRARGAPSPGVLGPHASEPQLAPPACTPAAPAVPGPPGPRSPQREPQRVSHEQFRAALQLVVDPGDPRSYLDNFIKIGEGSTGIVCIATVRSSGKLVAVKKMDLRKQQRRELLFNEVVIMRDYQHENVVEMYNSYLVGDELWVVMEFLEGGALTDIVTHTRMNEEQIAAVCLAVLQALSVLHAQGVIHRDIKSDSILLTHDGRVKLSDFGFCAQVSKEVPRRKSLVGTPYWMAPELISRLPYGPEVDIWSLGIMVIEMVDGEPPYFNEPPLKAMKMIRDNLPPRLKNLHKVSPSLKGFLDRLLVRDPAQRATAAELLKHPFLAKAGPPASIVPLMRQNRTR
smiles,measurement,setting,value
[Cu+2].[Cu+2].[Cu+2].c1ccc(-c2csc(NCCN(CCNc3nc(-c4ccccn4)cs3)CCNc3nc(-c4ccccn4)cs3)n2)nc1.c1ccc(-c2csc(NCCN(CCNc3nc(-c4ccccn4)cs3)CCNc3nc(-c4ccccn4)cs3)n2)nc1 [[L2Cu3]6+],% Inhibition Run 1,[1]; BRSK1,95.4%
same,% Inhibition Run 2,[1]; BRSK1,93.2%
same,"% Inhibition, Mean",[1]; BRSK1,94%
same,mean % activity,[1]; BRSK1,5.7%
same,% activity,"[1]; BRSK1, Run 1",4.6%
same,% activity,"[1]; BRSK1, Run 2",6.8%
same,% Activity inhibition Mean,"[1]; BRSK1, 10 µM",94.3%
same,% Activity inhibition Run 1,"[1]; BRSK1, 10 µM",95.4%
same,% Activity inhibition Run 2,"[1]; BRSK1, 10 µM",93.2%
same,% Activity remaining Run 1,"[1]; BRSK1, 10 µM",4.60%
same,% Activity remaining Run 2,"[1]; BRSK1, 10 µM",6.80%
same,% Inhibition Run 1,[2]; DYRK3,42.6%
same,% Inhibition Run 2,[2]; DYRK3,40.9%
same,"% Inhibition, Mean",[2]; DYRK3,42%
same,mean % activity,[2]; DYRK3,58%
same,% activity,"[2]; DYRK3, Run 1",57.4%
same,% activity,"[2]; DYRK3, Run 2",59.1%
same,% Inhibition Run 1,[3]; PAK4,23.3%
same,% Inhibition Run 2,[3]; PAK4,36.6%
same,"% Inhibition, Mean",[3]; PAK4,30%
same,mean % activity,[3]; PAK4,70%
same,% activity,"[3]; PAK4, Run 1",76.7%
same,% activity,"[3]; PAK4, Run 2",63.4%
same,"% Activation, Mean value",[4]; CLK2,3%
same,% Inhibition Run 1,[4]; CLK2,-9.8%
same,% Inhibition Run 2,[4]; CLK2,3.9%
same,"% Inhibition, Mean",[4]; CLK2,-3%
same,mean % activity,[4]; CLK2,103%
same,% activity,"[4]; CLK2, Run 1",109.8%
same,% activity,"[4]; CLK2, Run 2",96.1%
same,"% Activation, Mean value",[5]; TGFBR1,30%
same,% Inhibition Run 1,[5]; TGFBR1,-44.2%
same,% Inhibition Run 2,[5]; TGFBR1,-16.7%
same,"% Inhibition, Mean",[5]; TGFBR1,-30%
same,mean % activity,[5]; TGFBR1,130%
same,% activity,"[5]; TGFBR1, Run 1",144.2%
same,% activity,"[5]; TGFBR1, Run 2",116.7%
same,% Activity Run 1,"[5]; TGFBR1, 10 µM",144.20%
same,% Activity Run 2,"[5]; TGFBR1, 10 µM",116.70%
CC(=O)[O-].CC(=O)[O-].CC(=O)[O-].CC(=O)[O-].CC(=O)[O-].CC(=O)[O-].[Zn+2].[Zn+2].[Zn+2].c1ccc(-c2csc(NCCN(CCNc3nc(-c4ccccn4)cs3)CCNc3nc(-c4ccccn4)cs3)n2)nc1.c1ccc(-c2csc(NCCN(CCNc3nc(-c4ccccn4)cs3)CCNc3nc(-c4ccccn4)cs3)n2)nc1 [[L2Zn3]6+],"% Inhibition, Mean",[1]; BRSK1,32%
same,"% Inhibition, Run 1 / Run 2",[1]; BRSK1,39% and 26%
same,mean % activity,[1]; BRSK1,68%
same,% activity,"[1]; BRSK1, duplicate runs",62% and 74%
same,"% Inhibition, Mean",[2]; DYRK3,30%
same,"% Inhibition, Run 1 / Run 2",[2]; DYRK3,32% and 28%
same,mean % activity,[2]; DYRK3,70%
same,% activity,"[2]; DYRK3, duplicate runs",68% and 72%
same,"% Activation, Mean value",[3]; PAK4,20%
same,"% Inhibition, Mean",[3]; PAK4,-20%
same,mean % activity,[3]; PAK4,120%
same,% Activity Run 1,"[3]; PAK4, 10 µM",110.0%
same,% Activity Run 2,"[3]; PAK4, 10 µM",130.0%
same,% activity,"[3]; PAK4, duplicate runs",110% and 130%
same,"% Inhibition, Mean",[4]; CLK2,44%
same,"% Inhibition, Run 1 / Run 2",[4]; CLK2,43% and 45%
same,mean % activity,[4]; CLK2,56%
same,% activity,"[4]; CLK2, duplicate runs",57% and 55%
same,"% Inhibition, Mean",[5]; TGFBR1,41%
same,"% Inhibition, Run 1 / Run 2",[5]; TGFBR1,35% and 48%
same,mean % activity,[5]; TGFBR1,59%
same,% activity,"[5]; TGFBR1, duplicate runs",65% and 53%
